Results published in ChEMBL document CHEMBL1132821, “2,4,5-Trisubstituted imidazoles: novel nontoxic modulators of P-glycoprotein mediated multidrug resistance. Part 1” (Bioorg Med Chem Lett, 2000).

Columns and labels:
[1] = biological target: ATP-dependent translocase ABCB1 (Homo sapiens, UniProt P08183); assay: Evaluated for inhibition of growth of CEM/VLB1000 cell line using multidrug resistance (MDR) potentiation assay
NCI/ADR-RES [2] = assay: Compound (1 uM) was evaluated for the inhibition of cell growth in MCF-7/ADR* cell line (over expresses Pgp and is for Doxorubicin resistant) in the presence of vinblastine; type: functional; conditions: Homo sapiens, read-out: ED50 (the source's name)
NCI/ADR-RES [3] = assay: Compound (1 uM) was evaluated for the inhibition of cell growth in MCF-7/ADR* cell line (over expresses Pgp and is for Doxorubicin resistant) in the presence of Taxol; type: functional; conditions: Homo sapiens, read-out: ED50 (the source's name)
MES-SA/Dx5 [4] = assay: Compound (1 uM) was evaluated for the inhibition of cell growth in MES-SA/DX5** cell line (over expresses Pgp and is for Doxorubicin resistant) in the presence of doxorubicin; type: functional; conditions: Homo sapiens, read-out: ED50 (the source's name)
MES-SA/Dx5 [5] = assay: Compound (1 uM) was evaluated for the inhibition of cell growth in MES-SA/DX5** cell line (over expresses Pgp and is for Doxorubicin resistant) in the presence of taxol; type: functional; conditions: Homo sapiens, read-out: ED50 (the source's name)
NCI/ADR-RES [6] = assay: Compound (1 uM) was evaluated for the inhibition of cell growth in MCF-7/ADR cell line (over expresses Pgp and is for Doxorubicin resistant) in the presence of Taxol; type: functional; conditions: Homo sapiens, read-out: ED50 (the source's name)
NCI/ADR-RES [7] = assay: Compound (1 uM) was evaluated for the inhibition of cell growth in MCF-7/ADR cell line (over expresses Pgp and is for Doxorubicin resistant) in the presence of vinblastine; type: functional; conditions: Homo sapiens, read-out: ED50 (the source's name)
MES-SA/Dx5 [8] = assay: Compound (1 uM) was evaluated for the inhibition of cell growth in MES-SA/DX5 cell line (over expresses Pgp and is Doxorubicin resistant) in the presence of doxorubicin; type: functional; conditions: Homo sapiens, read-out: ED50 (the source's name)
MES-SA/Dx5 [9] = assay: Compound (1 uM) was evaluated for the inhibition of cell growth in MES-SA/DX5 cell line (over expresses Pgp and is for Doxorubicin resistant) in the presence of taxol; type: functional; conditions: Homo sapiens, read-out: ED50 (the source's name)

ATP-dependent translocase ABCB1, sequence (P08183 whole entry): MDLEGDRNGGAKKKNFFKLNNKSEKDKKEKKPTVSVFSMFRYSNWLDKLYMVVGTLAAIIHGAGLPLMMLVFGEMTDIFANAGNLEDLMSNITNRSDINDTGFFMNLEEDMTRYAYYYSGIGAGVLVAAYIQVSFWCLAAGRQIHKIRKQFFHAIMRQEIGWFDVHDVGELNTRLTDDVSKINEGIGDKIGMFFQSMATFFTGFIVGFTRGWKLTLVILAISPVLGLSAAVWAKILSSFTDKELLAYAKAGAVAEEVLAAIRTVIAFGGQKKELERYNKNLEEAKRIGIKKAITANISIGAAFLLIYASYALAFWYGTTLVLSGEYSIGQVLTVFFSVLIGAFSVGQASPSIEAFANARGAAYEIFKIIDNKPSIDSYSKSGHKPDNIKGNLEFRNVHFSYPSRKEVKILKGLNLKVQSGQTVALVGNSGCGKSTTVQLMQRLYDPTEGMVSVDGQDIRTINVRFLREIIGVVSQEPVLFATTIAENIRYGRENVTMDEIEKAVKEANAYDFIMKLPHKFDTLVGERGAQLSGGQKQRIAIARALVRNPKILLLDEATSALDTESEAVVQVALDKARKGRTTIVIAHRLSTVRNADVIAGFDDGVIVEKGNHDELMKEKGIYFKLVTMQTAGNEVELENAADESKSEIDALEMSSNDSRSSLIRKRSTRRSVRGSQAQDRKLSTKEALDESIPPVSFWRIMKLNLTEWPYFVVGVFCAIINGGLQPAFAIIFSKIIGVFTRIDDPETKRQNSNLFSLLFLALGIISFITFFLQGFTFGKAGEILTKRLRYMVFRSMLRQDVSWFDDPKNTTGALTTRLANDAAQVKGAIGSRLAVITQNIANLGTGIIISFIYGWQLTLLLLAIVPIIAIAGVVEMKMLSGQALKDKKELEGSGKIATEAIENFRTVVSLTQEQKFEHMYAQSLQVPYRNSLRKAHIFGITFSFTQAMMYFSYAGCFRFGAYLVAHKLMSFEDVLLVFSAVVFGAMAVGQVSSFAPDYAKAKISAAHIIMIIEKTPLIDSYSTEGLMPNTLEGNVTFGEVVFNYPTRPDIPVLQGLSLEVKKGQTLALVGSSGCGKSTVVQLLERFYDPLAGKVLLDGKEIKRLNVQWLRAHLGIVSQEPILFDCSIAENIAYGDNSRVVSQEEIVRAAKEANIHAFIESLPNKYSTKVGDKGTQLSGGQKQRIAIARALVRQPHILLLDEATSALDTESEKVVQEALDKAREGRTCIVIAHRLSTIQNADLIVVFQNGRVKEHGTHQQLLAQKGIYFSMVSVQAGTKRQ

GI50 ([1]; read-out: ED50) | Compound | also measured
300 nM | COCCCc1ccc(-c2nc(-c3ccc(N(C)C)cc3)c(-c3ccc(N(C)C)cc3)[nH]2)cc1 | –
20000 nM | CN(C)c1ccc(-c2nc(-c3ccc(/C=C/C(=O)O)cc3)n(CCc3ccccc3)c2-c2ccc(N(C)C)cc2)cc1 | –
600 nM | CN(C)c1ccc(-c2nc(-c3ccc(/C=C/C#N)cc3)[nH]c2-c2ccc(N(C)C)cc2)cc1 | –
450 nM | CN(C)c1ccc(-c2nc(-c3ccc(/C=C/COc4ccccc4)cc3)[nH]c2-c2ccc(N(C)C)cc2)cc1 | –
60000 nM | CN(C)c1ccc(-c2nc(-c3ccc(C(=O)O)cc3)[nH]c2-c2ccc(N(C)C)cc2)cc1 | –
1300 nM | CN(C)C/C=C/c1ccc(-c2nc(-c3ccc(N(C)C)cc3)c(-c3ccc(N(C)C)cc3)[nH]2)cc1 | –
1000 nM | CN(C)c1ccc(-c2nc(-c3ccc(O)cc3)n(CCc3ccccc3)c2-c2ccc(N(C)C)cc2)cc1 | –
10000 nM | CN(C)c1ccc(-c2nc(-c3ccc(C(=O)O)cc3)n(CCc3ccccc3)c2-c2ccc(N(C)C)cc2)cc1 | –
10000 nM | CN(C)c1ccc(-c2nc(-c3ccc(/C=C/C(=O)O)cc3)[nH]c2-c2ccc(N(C)C)cc2)cc1 | –
– | CCN(CC)C(=O)OC/C=C/c1ccc(-c2nc(-c3ccc(N(C)C)cc3)c(-c3ccc(N(C)C)cc3)[nH]2)cc1 | GI50 [1]: 880 nM
– | COc1ccc(CCN(C)CCCC(C#N)(c2ccc(OC)c(OC)c2)C(C)C)cc1OC (stereo unspecified) | EC50 (NCI/ADR-RES [2]): 0.251 µg/mL; EC50 (NCI/ADR-RES [3]): 2.5 µg/mL; EC50 (MES-SA/Dx5 [4]): 3 µg/mL; EC50 (MES-SA/Dx5 [5]): 2.5 µg/mL
480 nM | CCCCC(=O)OC/C=C/c1ccc(-c2nc(-c3ccc(N(C)C)cc3)c(-c3ccc(N(C)C)cc3)[nH]2)cc1 | –
310 nM | COC(=O)C1CC1c1ccc(-c2nc(-c3ccc(N(C)C)cc3)c(-c3ccc(N(C)C)cc3)[nH]2)cc1 (stereo unspecified) | –
300 nM | COC(=O)/C=C/c1ccc(-c2nc(-c3ccc(N(C)C)cc3)c(-c3ccc(N(C)C)cc3)[nH]2)cc1 | –
300 nM | CN(C)c1ccc(-c2nc(-c3ccc(/C=C/COCc4ccccc4)cc3)[nH]c2-c2ccc(N(C)C)cc2)cc1 | –
1100 nM | COCCCCc1ccc(-c2nc(-c3ccc(N(C)C)cc3)c(-c3ccc(N(C)C)cc3)[nH]2)cc1 | –
– | CCCCOC/C=C/c1ccc(-c2nc(-c3ccc(N(C)C)cc3)c(-c3ccc(N(C)C)cc3)[nH]2)cc1 | GI50 [1]: 110 nM
90 nM | COCCOC/C=C/c1ccc(-c2nc(-c3ccc(N(C)C)cc3)c(-c3ccc(N(C)C)cc3)[nH]2)cc1 | –
– | CC(C)OC(=O)/C=C/c1ccc(-c2nc(-c3ccc(N(C)C)cc3)c(-c3ccc(N(C)C)cc3)[nH]2)cc1 | EC50 (NCI/ADR-RES [2]): 0.028 µg/mL; EC50 (NCI/ADR-RES [3]): 0.15 µg/mL; EC50 (MES-SA/Dx5 [4]): 0.34 µg/mL; EC50 (MES-SA/Dx5 [5]): 0.13 µg/mL
130 nM | COC/C=C/c1ccc(-c2nc(-c3ccc(N(C)C)cc3)c(-c3ccc(N(C)C)cc3)[nH]2)cc1 | –
1000 nM | COC(=O)CCc1ccc(-c2nc(-c3ccc(N(C)C)cc3)c(-c3ccc(N(C)C)cc3)[nH]2)cc1 | –
5000 nM | CN(C)c1ccc(-c2nc(-c3ccc(O)cc3)[nH]c2-c2ccc(N(C)C)cc2)cc1 | –
– | CCCCCCn1c(-c2ccc(C(=O)OC)cc2)nc(-c2ccc(N(C)C)cc2)c1-c1ccc(N(C)C)cc1 | GI50 [1]: 6000 nM
2000 nM | CCCCCCn1c(-c2ccc(C(=O)O)cc2)nc(-c2ccc(N(C)C)cc2)c1-c1ccc(N(C)C)cc1 | –
80 nM | CCOC/C=C/c1ccc(-c2nc(-c3ccc(N(C)C)cc3)c(-c3ccc(N(C)C)cc3)[nH]2)cc1 | EC50 (NCI/ADR-RES [6]): 0.036 µg/mL; EC50 (NCI/ADR-RES [7]): 0.01 µg/mL; EC50 (MES-SA/Dx5 [8]): 0.089 µg/mL; EC50 (MES-SA/Dx5 [9]): 0.024 µg/mL
600 nM | COC(=O)c1ccc(-c2nc(-c3ccc(N(C)C)cc3)c(-c3ccc(N(C)C)cc3)[nH]2)cc1 | –
